Test results: patent US20250382298A1, “NITROGEN-CONTAINING COMPOUND AND USE THEREOF” (SUZHOU GENHOUSE BIO CO., LTD., priority 2022, published 2025)

Key:
[1] = tested on: BT-549 cells; test: Detection of cell proliferation activity by CCK8 method (BT-549); assay type: cell-based; settings: CCK8, 96 h
How it was run: (§1)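 Cells seeded at 1500/well (BT-549, 1640 medium) or 2000/well (HT-29, HCT-116, McCoy's 5A), treated next day with 9-point 1:5 dilutions from 10 μM final, triplicate, for 96 h. CCK8 read at 450 nm after 2 h at 37 °C; inhibition versus DMSO, IC50 by non-linear regression.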

[2] = tested on: HCT-116 cells; test: Mitotic index analysis, pH3 expression in HCT-116 cells; assay type: cell-based; settings: 24 h treatment
How it was run: (§2)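 HCT-116 or HT-29 cells treated 24 h with 9-point 3-fold dilutions from 10 μM, then fixed and immunostained for phospho-histone H3 with DRAQ5 counterstain. Near-infrared fluorescence read at 700/800 nm; pH3 expressed as % of DMSO control and EC50 fitted.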

[3] = tested on: HCT-116 cells; test: Detection of cell proliferation activity by CCK8 method (HCT-116); assay type: cell-based; settings: CCK8, 96 h
How it was run: as §1

[4] = tested on: HT-29 cells; test: Mitotic index analysis, pH3 expression in HT-29 cells; assay type: cell-based, human; settings: 24 h treatment
How it was run: as §2

[5] = biological target: KIF18A (Homo sapiens (Human), UniProt Q8NI77); test: KIF18A enzymatic activity inhibition, ADP-Glo kit; assay type: biochemical; settings: 4 nM KIF18A, 30 μM ATP
Procedure: In this experiment, an ADP-Glo kit was used to detect the inhibitory activity of the compounds against KIF18A. Each compound was prepared into a 10 mM stock solution with DMSO, which was then diluted at 1:5 to obtain 9 gradients with the initial final concentration set at 10 μM. Meanwhile, a control group and a blank group were also set up. The reaction buffer consisted of 15 mM Tris (pH 7.5), 10 mM MgCl2, and 0.01% Pluronic F-68. 4 nM KIF18A (1467) and the test compound were added to a 384-well plate and incubated at 37° C. for 20 mm. Then, 30 μM ATP was added to initiate the enzymatic reaction, and the plate was incubated at room temperature for 15 min. Finally, the ADP-Glo reagent was added to detect the luminescence intensity, where the luminescence intensity is directly proportional to the ADP content. Inhibition rate (%)=[…]. Sample signal is the value of the compound group, and DMSO signal is the value of the DMSO control group. Then, the inhibition rate at each concentration was calculated, and the IC50 was determined by fitting using the GraphPadPrism 7.0 software.

[6] = tested on: OVCAR3 cells; test: Detection of OVCAR3 cell proliferation activity by CTG method; assay type: cell-based; settings: CellTiter-Glo, 7 days
Excerpt: This assay can be used to examine the potency of compounds in inhibiting the proliferation of tumor cells (OVCAR3, HT-29, BT-549, HCT-116). A lower IC50 value indicates high potency of the compound as a KIF18A inhibitor in the following assay setup,
1640 medium; fetal bovine serum; penicillin/streptomycin antibiotics purchased from Wisent; CellTiter-Glo (chemiluminescence detection reagent for cell viability) reagent purchased from Promega; OVCAR3 cell line purchased from Nanjing Cobioer Biosciences Co., Ltd.; Nivo multimode microplate reader (PerkinElmer),
OVCAR3 cells were seeded into a white 96-well plate, with 80 μL of cell suspension containing 2000 OVCAR3 cells added to each well. The cell plate was incubated in a CO2 incubator overnight.
A test compound was 5-fold diluted to the 8th concentration (i.e., from 2 mM to […]) using a multichannel pipette, with duplicate wells set up. To an intermediate plate was added 78 μL of medium, and the serially diluted compound was transferred to the corresponding wells of the intermediate plate at 2 μL/well. The mixture was mixed well and then transferred to the cell plate at 20 μL/well. The concentration of the compound transferred to the cell plate ranged from 10 μM to 0.026 nM. The cell plate was incubated in a CO2 incubator for 7 days. Another cell plate was prepared and read for signal values on the day of compound addition, and these values were used as the maximum values (the Max value in the equation below) in data analysis. To this cell plate was added the chemiluminescence detection reagent for cell viability at 25 μL/well, and the luminescence signals were stabilized by incubation at room temperature for 10 min. Readings were taken using the multimode microplate reader.
To the cell plate was added the chemiluminescence detection reagent for cell viability at 25 μL/well, and the luminescence signals were stabilized by incubation at room temperature for 10 mm. Readings were taken using the multimode microplate reader, […]

[7] = tested on: HT-29 cells; test: Detection of cell proliferation activity by CCK8 method (HT-29); assay type: cell-based, human; settings: CCK8, 96 h
How it was run: as §1

[8] = tested on: OVCAR3 cells; test: Detection of cell proliferation activity by CCK8 method (OVCAR3); assay type: cell-based
How it was run: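 OVCAR3 tumor cells in log-phase growth were trypsinized, counted and plated at 180 μL per well in 96-well plates, with PBS in the outer wells. The following day, compounds were added in 9 concentrations (1:5 dilutions starting at 10 μM final) in triplicate alongside DMSO controls. After 96 h, medium was swapped for 100 μL medium containing 10% CCK8. Plates were incubated 2 h at 37° C and read at 450 nm. Background-corrected inhibition relative to DMSO was fitted by non-linear regression in GraphPad Prism 7.0 to obtain IC50.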

[9] = Pharmacokinetic test in mice; assay type: in vivo; settings: BALB/c mice, PO @30mpk; for AUC / Cmax / half-life: mouse, plasma, 30 mg/kg; for half-life: read-out: t½ (converted)
Procedure: In this example, the pharmacokinetic behavior of the compounds after intravenous injection (IV) and intragastric (PO) administration in BALB/c mice was tested.
(§3) On the day of administration, mice were weighed for actual body weight and the administration volume was calculated. Each compound was tested in two groups with 9 mice in each group; one group was subjected to administration by single intravenous injection, and the other group of mice was subjected to single intragastric administration. Whole blood samples were collected via the orbit at prescribed time points (0.25 h, 0.5 h, 1 h, 2 h, 4 h, 8 h, and 24 h after administration). After blood sample collection, the samples were immediately transferred to labeled commercial sample tubes containing K2-EDTA (0.85-1.15 mg), followed by centrifugation (3200×g, 4° C., 10 min) and plasma collection. The plasma was transferred to a pre-cooled centrifuge tube, frozen in dry ice, and then stored in an ultra-low temperature freezer at −60° C. or lower until the LC-MS/MS analysis.
(§4) Plasma concentrations were determined by the LC-MS/MS method. Plasma drug concentration data for the compounds were processed using a non-compartmental model in the WinNonlin Version 6.3 (Pharsight, Mountain View, CA) pharmacokinetic software. The relevant pharmacokinetic parameters were calculated by a linear-log trapezoidal method.

[10] = Pharmacokinetic test in rats; assay type: in vivo; settings: SD rats, PO @5mpk
Procedure: In this example, the pharmacokinetic behavior of the compounds after intravenous injection (IV) and intragastric (PO) administration in SD rats was tested.
as §3, with “rats” for “mice”, “3 rats” for “9 mice”, “group” for “group of mice”, “jugular vein” for “orbit”
as §4

[11] = Homo sapiens, OVCAR-3, CCK8, 96 h

Sequence of KIF18A (Q8NI77 1-467): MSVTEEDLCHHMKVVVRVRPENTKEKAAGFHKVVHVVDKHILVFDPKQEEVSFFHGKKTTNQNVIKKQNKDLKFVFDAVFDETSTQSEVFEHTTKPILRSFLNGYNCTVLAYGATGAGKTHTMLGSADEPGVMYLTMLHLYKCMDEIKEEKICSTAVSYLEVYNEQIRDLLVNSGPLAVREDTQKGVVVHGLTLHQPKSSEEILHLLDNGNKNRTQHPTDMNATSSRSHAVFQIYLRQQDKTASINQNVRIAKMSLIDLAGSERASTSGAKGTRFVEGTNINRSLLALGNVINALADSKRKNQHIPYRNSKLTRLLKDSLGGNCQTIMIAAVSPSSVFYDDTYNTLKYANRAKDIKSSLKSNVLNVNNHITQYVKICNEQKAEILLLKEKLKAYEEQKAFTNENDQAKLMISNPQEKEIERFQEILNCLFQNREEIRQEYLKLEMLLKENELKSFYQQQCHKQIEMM

SMILES | IC50 [5] [nM] | IC50 ([1]; Homo sapiens) [nM] | EC50 ([2]; Homo sapiens) [µM] | IC50 ([3]; Homo sapiens) [µM] | EC50 ([4]; Homo sapiens) [nM] | F [9] [%] | AUC [9] [µM·h] | Cmax [9] [µM] | half-life [9] [days] | IC50 ([7]; Homo sapiens) [nM] | IC50 [8, 11] [nM] | IC50 ([6]; Homo sapiens, OVCAR-3, 168 h) [nM] | also measured
O=C(Nc1cn2cncc2c(N2CCC(F)(F)CC2)n1)c1ccc(NS(=O)(=O)CCO)cc1N1CCC2(CC1)CC2 [Compound 27] | 23.1 |  |  |  |  |  |  |  |  |  |  |  | IC50 [1]: 81.9 nM; EC50 [2]: > 10 µM; IC50 [3]: > 10 µM; EC50 [4]: 34.6 nM; IC50 [6]: 38.6 nM; IC50 [7]: 141 nM; IC50 ([8]; CCK8, 96 h): 27.2 nM
O=C(Nc1cn2ccnc2c(N2CC3(CCC3)C2)n1)c1ccc(NS(=O)(=O)CCO)cc1N1CCC2(CC1)CC2 [Compound 29] | 63.4 | 1040 | > 10 | > 10 | 108 |  |  |  |  | 335 | 206 | 220 | 
Cn1ncc2cc(NC(=O)c3ccc(NS(C)(=O)=O)cc3N3CC4CCC(C4)C3)nc(N3CCC(F)(F)CC3)c21 [Compound 56] | 40.8 | 121 | > 10 | > 10 | 13.4 | 142 | 436 | 23.6 | 3.37 | 25.4 | 16.2 |  | 
Cn1ccc2cc(NC(=O)c3ccc(NS(=O)(=O)CCO)cc3N3CCC4(CC3)CC4)nc(N3CCC(F)(F)CC3)c21 [Compound 18] | 93.2 | 247 | > 10 | > 10 | 87 |  |  |  |  | 336 |  | 93 | 
O=C(Nc1cc2nn[nH]c2c(N2CCC(F)(F)CC2)n1)c1ccc(NS(=O)(=O)CCO)cc1N1CCC2(CC1)CC2 [Compound 28] | 33.4 |  |  |  |  |  |  |  |  |  |  |  | IC50 [1]: 117 nM; EC50 [2]: > 10 µM; IC50 [3]: > 10 µM; EC50 [4]: 77.8 nM; IC50 [6]: 27.4 nM; IC50 [7]: 321 nM; IC50 ([8]; CCK8, 96 h): 23.4 nM
CC1(S(=O)(=O)Nc2ccc(C(=O)Nc3cn4ccnc4c(N4CCC(F)(F)CC4)n3)c(N3CCC4(CC3)CC4)c2)CC1 [Compound 13] | 187 | 110 | > 10 | > 10 | 235 |  |  |  |  | 131 |  | 33 | 
O=C(Nc1cc2nccnc2c(N2CCC(F)(F)CC2)n1)c1ccc(NS(=O)(=O)CCO)cc1N1CC2CCC(C2)C1 [Compound 73] | 38.4 | 77.9 | > 10 | > 10 | 24.8 | 72 | 69.1 | 4.66 | 0.158 | 41.8 | 20.2 |  | 

Continued by falling IC50 [5], values first:

IC50 [5] [nM] | IC50 ([1]; Homo sapiens) [nM] | EC50 ([2]; Homo sapiens) [µM] | IC50 ([3]; Homo sapiens) [µM] | EC50 ([4]; Homo sapiens) [nM] | F [9] [%] | AUC [9] [µM·h] | Cmax [9] [µM] | half-life [9] [days] | IC50 ([7]; Homo sapiens) [nM] | IC50 [8, 11] [nM] | IC50 ([6]; Homo sapiens, OVCAR-3, 168 h) [nM] | SMILES | also measured
27.9 | 31.9 | > 10 | > 10 | 26.7 | 44 | 154 | 6.98 | 6.07 | 33.8 | 14.6 |  | CS(=O)(=O)Nc1ccc(C(=O)Nc2cn3ncnc3c(N3CCC(F)(F)CC3)n2)c(N2CCC3(CC2)CC3)c1 [Compound 57] | 
22 | 209 | > 10 | > 10 | 42.9 | 107 | 269 | 14.1 | 1.62 | 75.2 | 52.9 |  | CS(=O)(=O)Nc1ccc(C(=O)Nc2cn3c(F)cnc3c(N3CCC(F)(F)CC3)n2)c(N2CC3CCC(C3)C2)c1 [Compound 52] | 
15.2 | 109 | > 10 | > 10 | 139 |  |  |  |  | 146 |  | 36 | O=C(Nc1cn2ccnc2c(N2CCOCC2)n1)c1ccc(NS(=O)(=O)CCO)cc1N1CCC2(CC1)CC2 [Compound 11] | F [10]: 25%; AUC ([10]; rat, plasma, 5 mg/kg): 0.604 µM·h; Cmax ([10]; rat, plasma, 5 mg/kg): 217 nM; half-life ([10]; rat, plasma, 5 mg/kg, read-out: t½ (converted)): 144 min
